# Test results as given in US20180147183A1, “USE OF R-OXIRACETAM IN PHARMACEUTICAL FIELD” (Chongqing Runze Pharmaceutical Co., Ltd., priority 2015, published 2018).
# Marks after values point to notes of the source that are not given here.
# Tested on: Pentetrazol (PTZ) ignited rat epilepsy model
# Test: Pentetrazol (PTZ)-ignited rat epilepsy model
# Assay type: in vivo, SD rats
# Settings: for mortality rate / Numbers of deaths (Number): 10 days
# Procedure: Rats were injected intraperitoneally with PTZ at a dose of 35 mg/kg (7 mg/ml, 0.5 ml/100 g body weight) for sub-convulsions three times weekly. The animals are weighed before each ip, and observed for behavioral changes after ip. within 1-2 h. Behavioral scoring was carried out according to the revised Racine score. Three consecutive occurrences of seizures of stage IV and above indicate successful ignition.
# The animals successfully ignited were chosen to be grouped. The animals were randomly divided into 4 groups, 8-10/group. […] 3 times of clinical dose were chosen, that is, 500 mg/kg. […] The dosage is 1 ml/100 g, continuous intragastrical administration of 10 days. Specific dose settings are as follows:
# PTZ 35 mg/kg. The animals are observed for behavioral changes within 2 h. Behavioral scoring was carried out according to the revised Racine score, continuous administration for 10 days, grading standards as mentioned above.
# The seizures were recorded daily ip PTZ within 2 h. The seizure levels, latencies, mortality were recorded, and compared with the model control group.
structure (smiles),measurement,setting,value
"NC(=O)CN1C[C@H](O)CC1=O [R-oxiracetam, (R)-4-hydroxy-2-oxo-1-pyrrolidineacetamide]",Seizure latency (X ± SD),"High-dose 360 mg/kg daily, D1",3.83 ± 1.17 m
same,occurrence rates of stage IV or above seizures,"High-dose 360 mg/kg daily, D1",4/6 (66.7) %
same,Seizure latency (X ± SD),"High-dose 360 mg/kg daily, D2",5.00 ± 0.89 m
same,occurrence rates of stage IV or above seizures,"High-dose 360 mg/kg daily, D2",3/6(50.0) %
same,Seizure latency (X ± SD),"High-dose 360 mg/kg daily, D3",6.17 ± 1.17 m
same,occurrence rates of stage IV or above seizures,"High-dose 360 mg/kg daily, D3",3/6 (50.0) %
same,Seizure latency (X ± SD),"High-dose 360 mg/kg daily, D4",6.50 ± 1.05 m
same,occurrence rates of stage IV or above seizures,"High-dose 360 mg/kg daily, D4",2/6 (33.3) %
same,Seizure latency (X ± SD),"High-dose 360 mg/kg daily, D5",7.17 ± 0.75 m
same,occurrence rates of stage IV or above seizures,"High-dose 360 mg/kg daily, D5",1/6 (16.7) %
same,Seizure latency (X ± SD),"High-dose 360 mg/kg daily, D6",7.83 ± 0.75 m
same,occurrence rates of stage IV or above seizures,"High-dose 360 mg/kg daily, D6",1/6 (16.7) %
same,Seizure latency (X ± SD),"High-dose 360 mg/kg daily, D7",8.33 ± 1.03 m
same,occurrence rates of stage IV or above seizures,"High-dose 360 mg/kg daily, D7",0/6** (0) %
same,Seizure latency (X ± SD),"High-dose 360 mg/kg daily, D8",8.83 ± 0.98 m
same,occurrence rates of stage IV or above seizures,"High-dose 360 mg/kg daily, D8",0/6** (0) %
same,Seizure latency (X ± SD),"High-dose 360 mg/kg daily, D9",8.83 ± 0.75 m
same,occurrence rates of stage IV or above seizures,"High-dose 360 mg/kg daily, D9",0/6* (0) %
same,Seizure latency (X ± SD),"High-dose 360 mg/kg daily, D10",9.83 ± 0.75 m
same,occurrence rates of stage IV or above seizures,"High-dose 360 mg/kg daily, D10",0/6* (0) %
same,mortality rate,High-dose 360 mg/kg intragastric,0%
same,Numbers of deaths (Number),"High-dose 360 mg/kg intragastric, 6 animals, 360 mg/kg",No animal died
same,Numbers of deaths (Number),"High-dose 360 mg/kg intragastric, 6 animals, listed as R-Oxiracetam, 360 mg/kg",0
same,Seizure latency (X ± SD),"Low-dose 120 mg/kg daily, D1",3.57 ± 1.51 m
same,occurrence rates of stage IV or above seizures,"Low-dose 120 mg/kg daily, D1",4/7 (57.1) %
same,Seizure latency (X ± SD),"Low-dose 120 mg/kg daily, D2",4.57 ± 1.72 m
same,occurrence rates of stage IV or above seizures,"Low-dose 120 mg/kg daily, D2",4/6(66.7) %
same,Seizure latency (X ± SD),"Low-dose 120 mg/kg daily, D3",5.00 ± 1.15 m
same,occurrence rates of stage IV or above seizures,"Low-dose 120 mg/kg daily, D3",3/6 (50.0) %
same,Seizure latency (X ± SD),"Low-dose 120 mg/kg daily, D4",4.86 ± 1.07 m
same,occurrence rates of stage IV or above seizures,"Low-dose 120 mg/kg daily, D4",2/6 (33.3) %
same,Seizure latency (X ± SD),"Low-dose 120 mg/kg daily, D5",5.43 ± 0.98 m
same,occurrence rates of stage IV or above seizures,"Low-dose 120 mg/kg daily, D5",2/6 (33.3) %
same,Seizure latency (X ± SD),"Low-dose 120 mg/kg daily, D6",6.29 ± 1.11 m
same,occurrence rates of stage IV or above seizures,"Low-dose 120 mg/kg daily, D6",2/6 (33.3) %
same,Seizure latency (X ± SD),"Low-dose 120 mg/kg daily, D7",6.86 ± 1.07 m
same,occurrence rates of stage IV or above seizures,"Low-dose 120 mg/kg daily, D7",1/6* (16.7) %
same,Seizure latency (X ± SD),"Low-dose 120 mg/kg daily, D8",7.14 ± 1.07 m
same,occurrence rates of stage IV or above seizures,"Low-dose 120 mg/kg daily, D8",1/6* (16.7) %
same,Seizure latency (X ± SD),"Low-dose 120 mg/kg daily, D9",7.71 ± 0.76 m
same,occurrence rates of stage IV or above seizures,"Low-dose 120 mg/kg daily, D9",0/6* (0) %
same,Seizure latency (X ± SD),"Low-dose 120 mg/kg daily, D10",8.43 ± 0.98 m
same,occurrence rates of stage IV or above seizures,"Low-dose 120 mg/kg daily, D10",0/6* (0) %
same,mortality rate,Low-dose 120 mg/kg intragastric,14.3%
same,Numbers of deaths (Number),"Low-dose 120 mg/kg intragastric, 7 animals, 120 mg/kg",No animal died
same,Numbers of deaths (Number),"Low-dose 120 mg/kg intragastric, 7 animals, listed as R-Oxiracetam, 120 mg/kg",1
